Measured values reported in ChEMBL document CHEMBL6134778, “Spiro-Azetidine Oxindoles as Long-Acting Injectables for Pre-Exposure Prophylaxis against Respiratory Syncytial Virus Infections” (J Med Chem, 2024).
Values after ≈ are worked out from the molar mass of the structure shown.

Legend:
[1] = test system: Respiratory syncytial virus; test: Antiviral activity against RSV A2 harboring eGFP infected in human HeLa cells assessed as reduction in virus replication measured after 3 days by laser microscopy; format: functional, organism-based; conditions: 72 h
[2] = test system: Respiratory syncytial virus; test: Antiviral activity against RSV A2 harboring eGFP infected in human HeLa cells assessed as reduction in virus replication by measuring 3X protein-adjusted effective concentration for 90% inhibition measured after 3 days in presence of human serum albumin and alpha(1)-acid glycoprotein by laser microscopy; format: functional; conditions: time 3 day
[3] = test system: HeLa; test: Cytotoxicity against human HeLa cells assessed as reduction in cell viability at highest concentration measured after 3 days by ATPlite assay; format: toxicity, cell-based; conditions: 72 h, time 3 day
[4] = Chromatographic hydrophobicity index, logD of the compound at pH 7.4 by UPLC analysis; format: physicochemical; conditions: buffer
[5] = Equilibrium solubility of the compound […] at pH 7 measured after 3 days by LC-MS/MS analysis; format: physicochemical; conditions: time 3 day
[6] = Thermodynamic solubility in aqueous buffer at pH 7 incubated for 24 hrs by UPLC analysis; format: physicochemical; conditions: read-out: Therm_solubility
[7] = Intrinsic clearance in human liver microsomes assessed per mg protein at 1 uM measured after 60 mins in presence of NADPH by LC-MS/MS analysis; format: ADME, Microsome; conditions: read-out: CLH
[8] = Intrinsic clearance in human hepatocytes assessed per million cells at 1 uM measured after 180 mins by LC-MS/MS analysis; format: ADME, cell-based, Hepatocyte; conditions: read-out: CLH
[9] = Clearance in Sprague-Dawley rat at 1 mg/kg, iv by LC-MS/MS analysis; format: ADME, organism-based; conditions: in vivo
[10] = Volume of distribution at steady state in Sprague-Dawley rat at 1 mg/kg, iv by LC-MS/MS analysis; format: ADME, organism-based; conditions: in vivo, read-out: Vdss
[11] = test system: Rattus norvegicus; test: Particle size for the 50th percentile of the cumulative volume distribution in Sprague-Dawley rat at 50 mg/kg, IM […]; format: ADME, organism-based; conditions: in vivo
[12] = test system: Rattus norvegicus; test: Release rate constant in Sprague-Dawley rat at 50 mg/kg, IM measured over 12 weeks by LC-MS/MS analysis; format: ADME, organism-based; conditions: in vivo, 2016 h
[13] = Bioavailability in Sprague-Dawley rat assessed as dose released at 50 mg/kg, IM measured over 12 weeks by LC-MS/MS analysis; format: ADME, organism-based; conditions: in vivo
[14] = Clearance in Beagle dog at 0.25 mg/kg, iv by LC-MS/MS analysis; format: ADME, organism-based, Canis lupus familiaris; conditions: in vivo
[15] = Volume of distribution at steady state in Beagle dog at 0.25 mg/kg, iv by LC-MS/MS analysis; format: ADME, organism-based, Canis lupus familiaris; conditions: in vivo, read-out: Vdss
[16] = test system: Canis familiaris; test: Particle size for the 50th percentile of the cumulative volume distribution in Beagle dog at 20 mg/kg, IM […]; format: ADME, organism-based, Canis lupus familiaris; conditions: in vivo
[17] = test system: Canis familiaris; test: Release rate constant in Beagle dog at 20 mg/kg, IM by LC-MS/MS analysis; format: ADME, organism-based, Canis lupus familiaris; conditions: in vivo
[18] = Bioavailability in Beagle dog assessed as dose released at 20 mg/kg, IM by LC-MS/MS analysis; format: ADME, organism-based, Canis lupus familiaris; conditions: in vivo
[19] = test system: Respiratory syncytial virus; test: Antiviral activity against RSV A/07-041911 harboring eGFP infected in human HeLa cells assessed as reduction in virus replication measured after 3 days by laser microscopy; format: functional, organism-based; conditions: A/07-041911, HeLa, 72 h
[20] = test system: Respiratory syncytial virus; test: Antiviral activity against RSV A/11-014288 harboring eGFP infected in human HeLa cells assessed as reduction in virus replication measured after 3 days by laser microscopy; format: functional, organism-based; conditions: A/11-014288, HeLa, 72 h
[21] = test system: Respiratory syncytial virus; test: Antiviral activity against RSV A/12-049454 harboring eGFP infected in human HeLa cells assessed as reduction in virus replication measured after 3 days by laser microscopy; format: functional, organism-based; conditions: A/12-049454, HeLa, 72 h
[22] = test system: Respiratory syncytial virus; test: Antiviral activity against RSV A/13-000323 harboring eGFP infected in human HeLa cells assessed as reduction in virus replication measured after 3 days by laser microscopy; format: functional, organism-based; conditions: A/13-000323, HeLa, 72 h
[23] = test system: Respiratory syncytial virus; test: Antiviral activity against RSV A/18-001989 harboring eGFP infected in human HeLa cells assessed as reduction in virus replication measured after 3 days by laser microscopy; format: functional, organism-based; conditions: A/18-001989, HeLa, 72 h
[24] = test system: Respiratory syncytial virus; test: Antiviral activity against RSV rgRSV224 (A2-GFP) harboring eGFP infected in human HeLa cells assessed as reduction in virus replication measured after 3 days by laser microscopy; format: functional, organism-based; conditions: 72 h
[25] = test system: Respiratory syncytial virus; test: Antiviral activity against RSV pSynk-A2F (A2-mKate2) harboring eGFP infected in human HeLa cells assessed as reduction in virus replication measured after 3 days by laser microscopy; format: functional, organism-based; conditions: 72 h
[26] = test system: Respiratory syncytial virus; test: Antiviral activity against RSV A2 harboring V76A/Y117H/N517I/L172Q mutant infected in human HeLa cells assessed as reduction in virus replication measured after 3 days by laser microscopy; format: functional, organism-based; conditions: 72 h
[27] = test system: Respiratory syncytial virus; test: Antiviral activity against RSV A Memphis 37 harboring eGFP infected in human HeLa cells assessed as reduction in virus replication measured after 3 days by laser microscopy; format: functional, organism-based; conditions: A Memphis 37, HeLa, 72 h
[28] = test system: Respiratory syncytial virus; test: Antiviral activity against RSV A Long harboring eGFP infected in human HeLa cells assessed as reduction in virus replication measured after 3 days by laser microscopy; format: functional, organism-based; conditions: 72 h
[29] = test system: Respiratory syncytial virus; test: Antiviral activity against RSV B/03-034613 harboring eGFP infected in human HeLa cells assessed as reduction in virus replication measured after 3 days by laser microscopy; format: functional, organism-based; conditions: B/03-034613, HeLa, 72 h
[30] = test system: Respiratory syncytial virus; test: Antiviral activity against RSV B/05-036549 harboring eGFP infected in human HeLa cells assessed as reduction in virus replication measured after 3 days by laser microscopy; format: functional, organism-based; conditions: B/05-036549, HeLa, 72 h
[31] = test system: Respiratory syncytial virus; test: Antiviral activity against RSV B/11-050703 harboring eGFP infected in human HeLa cells assessed as reduction in virus replication measured after 3 days by laser microscopy; format: functional, organism-based; conditions: B/11-050703, HeLa, 72 h
[32] = test system: Respiratory syncytial virus; test: Antiviral activity against RSV B/14-006938 harboring eGFP infected in human HeLa cells assessed as reduction in virus replication measured after 3 days by laser microscopy; format: functional, organism-based; conditions: B/14-006938, HeLa, 72 h
[33] = test system: Respiratory syncytial virus; test: Antiviral activity against RSV B/17-058221 harboring eGFP infected in human HeLa cells assessed as reduction in virus replication measured after 3 days by laser microscopy; format: functional, organism-based; conditions: B/17-058221, HeLa, 72 h
[34] = test system: Respiratory syncytial virus; test: Antiviral activity against RSV B/18-002094 harboring eGFP infected in human HeLa cells assessed as reduction in virus replication measured after 3 days by laser microscopy; format: functional, organism-based; conditions: B/18-002094, HeLa, 72 h
[35] = test system: Respiratory syncytial virus; test: Antiviral activity against RSV B Wash/18537 harboring eGFP infected in human HeLa cells assessed as reduction in virus replication measured after 3 days by laser microscopy; format: functional, organism-based; conditions: B Wash/18537, HeLa, 72 h
[36] = test system: Respiratory syncytial virus; test: Antiviral activity against RSV B pSynk-18537F (18537-mKate2) harboring eGFP infected in human HeLa cells assessed as reduction in virus replication measured after 3 days by laser microscopy; format: functional, organism-based; conditions: 72 h
[37] = test system: Respiratory syncytial virus; test: Antiviral activity against RSV A2 infected in PO or IM dosed BALB/c mouse assessed as reduction in viral titer in BALF by plaque assay; format: functional, organism-based; conditions: human respiratory syncytial virus
[38] = test system: Respiratory syncytial virus; test: Antiviral activity against RSV A Long infected in PO dosed cotton rat assessed as reduction in viral titer in BALF administered twice day from 1 day prior to infection to 3 days post-infection by plaque assay; format: functional, organism-based; conditions: human respiratory syncytial virus
[39] = Intrinsic clearance in human hepatocytes assessed per million cells measured after 6 hrs using tritiated compound by LC-MS/MS analysis; format: ADME, cell-based, Hepatocyte; conditions: read-out: CLH

With CC(C)(O)C(=O)N1CC2(C1)C(=O)N(Cc1nc3cc(Cl)ccc3n1CCCC(F)(F)F)c1ccccc12 the EC50 [1] was 1 nM, the “protein-adjusted EC90” value [2] was 0.031 µg/mL and the Activity [3] was “Non-toxic”. The CHI [4] was 2.84, the solubility at 72 h [5] was 0.74 µM (≈ 0.396 µg/mL) and the solubility thermodynamic at 24 h [6] was < 0.1 µg/mL. For the same molecule, the microsomal CLint at 1 µM [7] was < 7.7 µL/min/mg, the hepatocyte CLint at 1 µM [8] was < 1.2 µL/min/1e6 cells and the clearance [9] was 9.3 mL/min/kg. The Vd [10] was 2.78 L/kg, the “Median particle size (D50)” value [11] was 1.02 um and the Ka [12] was 0.001 h⁻¹. The bioavailability [13] was 85%, the clearance [14] was 3.56 mL/min/kg and the Vd [15] was 1.77 L/kg. For the same molecule, the “Particle size (D50)” value [16] was 1.03 um, the Ka [17] was 0.003 h⁻¹ and the bioavailability [18] was 102%.

For CS(=O)(=O)N1CC2(C1)C(=O)N(Cc1nc3cc(Cl)ccc3n1CCCC(F)(F)F)c1ccccc12, the EC50 [1] was 0.78 nM, the “protein-adjusted EC90” value [2] was 0.034 µg/mL and the Activity [3] was “Non-toxic”. The CHI [4] was 3.39, the solubility at 72 h [5] was < 0.04 µM and the solubility thermodynamic at 24 h [6] was < 0.1 µg/mL. The microsomal CLint at 1 µM [7] was < 7.7 µL/min/mg, the clearance [9] was 18.5 mL/min/kg and the Vd [10] was 4.43 L/kg. For the same molecule, the “Median particle size (D50)” value [11] was 6.38 um, the Ka [12] was 0 h⁻¹ and the bioavailability [13] was 52%. For the same molecule, the clearance [14] was 0.46 mL/min/kg, the Vd [15] was 5.3 L/kg and the “Particle size (D50)” value [16] was 5.06 um. It also gave a Ka [17] of 0 h⁻¹, a bioavailability [18] of 50% and an EC50 [19] of 1.6 nM. For the same molecule, the EC50 [20] was 1.6 nM, the EC50 [21] was 1.6 nM and the EC50 [22] was 1.6 nM. The EC50 [23] was 1.6 nM, the EC50 [24] was 1.6 nM and the EC50 [25] was 1.6 nM. The EC50 [26] was 1.6 nM, the EC50 [27] was 1.6 nM and the EC50 [28] was 1.6 nM. It also gave an EC50 [29] of 1.6 nM, an EC50 [30] of 1.6 nM and an EC50 [31] of 1.6 nM. For the same molecule, the EC50 [32] was 1.6 nM, the EC50 [33] was 1.6 nM and the EC50 [34] was 1.6 nM. For the same molecule, the EC50 [35] was 1.6 nM, the EC50 [36] was 1.6 nM and the EC50 [37] was 0.088 µg/mL (≈ 0.167 µM). The EC50 [38] was 0.026 µg/mL (≈ 0.0493 µM) and the hepatocyte CLint [39] was < 1.2 µL/min/1e6 cells.

For O=C1N(Cc2nc3cc(Cl)ccc3n2CCCC(F)(F)F)c2cnccc2C12CN(S(=O)(=O)C1CC1)C2, the EC50 [1] was 0.43 nM, the “protein-adjusted EC90” value [2] was 0.0082 µg/mL and the Activity [3] was “Non-toxic”. The CHI [4] was 2.81, the solubility at 72 h [5] was < 0.13 µM and the solubility thermodynamic at 24 h [6] was < 0.1 µg/mL. For the same molecule, the microsomal CLint at 1 µM [7] was < 7.7 µL/min/mg, the hepatocyte CLint at 1 µM [8] was < 1.2 µL/min/1e6 cells and the clearance [9] was 43.5 mL/min/kg. For the same molecule, the Vd [10] was 2.48 L/kg, the “Median particle size (D50)” value [11] was 15.6 um and the Ka [12] was 0.003 h⁻¹. For the same molecule, the bioavailability [13] was 88%, the clearance [14] was 0.99 mL/min/kg and the Vd [15] was 2.65 L/kg. For the same molecule, the “Particle size (D50)” value [16] was 15.6 um, the Ka [17] was 0.01 h⁻¹ and the bioavailability [18] was 93%.
